From patent US20260023004A1, “SIGNAL ENHANCEMENT OF RESONANT SENSOR FOR CELL MEASUREMENTS” (lowa State University Research Foundation, Inc., priority 2022, published 2026) come the findings set out here.

In this assay the test system is HeLa cells. The assay can be described thus: Inhibition of HeLa cell growth monitored by resonant sensor frequency shift and microscope images. Particulars: Niclosamide at 15 μM in culture media. In kind it is cell-based. The method, then: To investigate the inhibition effect of cell growth on the sensor response, HeLa cells were first grown until a drastic resonant frequency shift was observed. FIG. 11 is a plot of resonant frequency as a function of time shown as curve 537. Four times are identified as 5, 6, 7, and 8. FIG. 12 is a cell image at time 5 of FIG. 11. Niclosamide was introduced at time 6 of FIG. 11 into the culture media at 15 μM. […] FIG. 13 is a cell image at time 6 of FIG. 11. FIG. 14 is a cell image at time 7 of FIG. 11. FIG. 15 is a cell image at time 8 of FIG. 11.

Molecules are shown by their SMILES.

Consider `O=C(Nc1ccc([N+](=O)[O-])cc1Cl)c1cc(Cl)ccc1O` [Niclosamide], for which, where the note is “HeLa cells grown until drastic resonant frequency shift”, the “resonant frequency shift of sensor after introducing drug” value is listed as “almost an instantaneous stop in the resonant frequency shift”. Also, the “cell growth after introducing the drug (microscopic images)” value (HeLa cells) is reported as “stop of cell growth”.
